According to US11291666B2, “Uses” (INTRA-CELLULAR THERAPIES, INC., priority 2016, dated 2022):

Columns and labels:
[1] = system: BV2 cells; assay: RT-qPCR of selected genes in BV2 cells with ITI-214, cyclase activators and PKA/PKG inhibitors; type: cell-based, mouse; conditions: 10 μM forskolin, 5 μM DEANO or 100 nM ANP
Protocol: In a further experiment a group of genes is selected for further analysis by RT-qPCR. For comparison, genes are analyzed which have been implicated in the scientific literature in microglial and astrocyte activation, including genes in the complement pathway.
All sample values are normalized to an average of 3 reference genes and to vehicle control (ΔΔCt). The error bars represent the mean+/−SEM (n=4). From left to right, for each cytokine grouping, the bars indicate samples treated with: LPS, 0.1 μM 214+LPS, 0.4 μM 214+LPS, 1.1 μM 214+LPS, 3.3 μM 214+LPS, 10 μM 214+LPS, for each particular gene shown on the X-axis. Significant changes between LPS and 10 μM ITI-214+LPS (A) and Vehicle and 10 μM ITI-214 (B) are marked on the X-axis gene names and are calculated using a one-way ANOVA. * p<0.05, **p<0.01, ***p<0.001, ****p<0.0001.
In one particular experiment, BV2 cells are treated with 10 μM forskolin (FSK) to activate adenylyl cyclases, 5 μM DEANO to activate soluble guanylyl cyclase, or 100 nM atrial natriuretic peptide (ANP) to activate particulate guanylyl cyclase. […] Upon combining forskolin with ITI-214 some of the effects of ITI-214 inhibition can be increased. […] However, LIF reverts to LPS-level expression when forskolin is added.
Note that gene expression levels upon addition of PKA or PKG inhibitor to 10 μM ITI-214 are on the order of those relative to LPS treatment alone were reduced to levels equivalent to 3.3 μM ITI-214.

[2] = system: inflammatory gene expression in mouse striatum; assay: Inflammatory gene expression in mouse striatum after LPS (Q-PCR); type: in vivo; conditions: Striatum Mouse + LPS; initial results
Protocol: (§1) RTqPCR: RNA from BV2 cells purified using RNeasyKit (Qiagen) and from mouse tissue using TRIzol (Ambion). TaqMan primer-probe assays from Thermo Fisher. mRNA levels for all conditions are normalized to GAPDH and to vehicle control (ΔΔCt). Data are analyzed statistically using one-way ANOVA with the Bonferroni post-test for multiple comparisons.
The results are based upon an evaluation of samples using Q-PCR.
Data from a further experiment measuring the effect of PDE1 inhibition on inflammatory gene expression in mouse striatum is depicted in FIG. 7. […] Striatal tissue is isolated and flash frozen, and RNA is extracted. Measurements from RT-qPCR are shown as log 2 fold change (2ΔΔCt). n=4 *p<0.05, **p<0.01, ***p<0.001, ****p<0.0001.
Data from yet another experiment measuring the effect of PDE1 inhibition on inflammatory gene expression in mouse striatum is depicted in FIG. 8. […] Striatal tissue is analyzed for mRNA levels of TNF, IL1β, Ccl2, and IL6. Expression levels are shown as change in Q-PCR signal from vehicle (ΔΔCt) and compared using an ANOVA. * p<0.05, **p<0.01, ***p<0.001.

[3] = system: BV2 cells; assay: Quantitative PCR of inflammatory cytokine mRNA in LPS-treated BV2 cells; type: cell-based, mouse
Protocol: Levels of IL1β are measured using quantitative PCR of IL1β mRNA. IL1β is considered a marker of inflammation. Results are depicted in FIG. 2 (RQ: relative quantification of changes in gene expression in treated versus control samples; ***p<0.01 vs control, √p<0.01 vs LPS alone; ANOVA with Newman-Keuls post-hoc test).
BV2 cells are pretreated with compound, ITI-214 or rolipram, a PDE4 inhibitor, then stimulated with 50 ng/ml LPS for 4 hours. Expression levels of TNF, IL1β, Ccl2, and IL6 are measured. Normalized mRNA levels are shown as change from vehicle (ΔΔCt) and compared using a one-way ANOVA. […] The mRNA transcripts for TNF, IL1β, and Ccl2—three of the four cytokines studied in vivo—were elevated in BV2 cells treated with 50 ng/ml LPS.
(§2) The test compound is added first, the LPS is added one hour later, and the cells and/or media are harvested at five hours from commencement of the experiment.
as §1

[4] = system: BV2 cells; assay: RNAseq analysis of LPS-stimulated BV2 cells, differentially expressed transcripts; type: cell-based, mouse; conditions: for genes significantly affected by this compound but not the other (Compound 214 / Rolipram): LPS-stimulated BV2 cells
Protocol: as §2
RNASeq: Flashfreeze BV2cells, isolate RNA, prepare a library using polyA selection, and conduct 1×50 bp single read sequencing on the Illumina HiSeq 2500 in High Output mode (using V4 chemistry). Genes are mapped to reference genome (GRCm38) using CLC Genomics Server. Number of reads per sample average ˜17 million. Differential gene expression analysis is performed using DESeq2software (Bioconductor.org). Differentially expressed genes (p<0.01, Waldtest) are reported as log 2(fold change).

[5] = system: retinal ganglion cells; assay: Optic nerve injury (optic crush) model; type: in vivo, mouse; conditions: mice; intraocular injection after optic nerve injury; 14 days; FIG. 12
Protocol: A PDE1 inhibitory compound is tested in an optic nerve injury model (i.e., the “optic crush” model). The studies described below are carried out using the selective PDE1 inhibitor IC200041, which has the following structure:
In this model, optic nerve surgeries are carried out on male mice 8 wk of age (average body weight, 20-26 g) under general anesthesia, as described previously (Yin Y, et al., Oncomodulin links inflammation to optic nerve regeneration. Proc Natl Acad Sci USA. 2009; 106:19587-19592). Following nerve injury, 3 μl of fluid is removed from the eye and a solution containing the PDE1 inhibitory compound is injected intraocularly.
A total of 4 mouse retinas are treated with the PDE1 inhibitor, and phosphate buffered saline (PBS) is administered to a total of 10 mouse retinas as a control. Mice are typically euthanized with an overdose of anesthesia 14 days after optic nerve injury and are perfused with saline and 4% paraformaldehyde (PFA). These mice are 10 weeks old when killed. Optic nerves and eyes are dissected and postfixed in PFA. […] Axons are counted manually in at least 8 longitudinal sections per case at pre-specified distances from the injury site, and these numbers were converted into the number of regenerating axons at various distances.

[6] = system: HL60 cells; assay: Total cGMP levels in PMA-differentiated HL60 cells with ANP and ionomycin (competitive ELISA); type: cell-based, human
Protocol: We have shown that there is a synergistic effect between ANP and PDE1 inhibition. An immortalized human pro-myeloid cell line (HL60 from ATCC) is grown, differentiated and harvested as described in Bender, A T, and Beavo, J A, 2006, PNAS 103, 460-465. The cells are grown in HEPES buffered RPMI 1640 medium with penicillin, streptomycin, and 10% fetal bovine serum. Phorbol-12-myristate-13-acetate (PMA), at 100 nM for 3 days, is used to differentiate the HL60 cells into macrophage-like cells. Following differentiation, the cells are incubated with a PDE1 inhibitor or vehicle (DMSO) beginning at time 0. At 40 minutes, 5 μM ionomycin (a calcium ionophore) is added. At 50 minutes, 100 nM ANP was added. At 60 minutes, the cells are harvested. Total cGMP levels are measured using a competitive ELISA (Bender and Beavo, 2006).

[7] = BV2 cells, Compound 214 at 10 μM, FIG. 4a

For `CC[C@H](C)[C@@H]1NC(=O)[C@H](CCCNC(=N)N)NC(=O)[C@H](CC(=O)O)NC(=O)[C@H](CCSC)NC(=O)[C@H](CCCNC(=N)N)NC(=O)CNC(=O)CNC(=O)[C@H](Cc2ccccc2)NC(=O)[C@@H](NC(=O)[C@H](CO)NC(=O)[C@H](CO)NC(=O)[C@H](CCCNC(=N)N)NC(=O)[C@H](CCCNC(=N)N)NC(=O)[C@H](CC(C)C)NC(=O)[C@@H](N)CO)CSSC[C@@H](C(=O)N[C@@H](CC(N)=O)C(=O)N[C@@H](CO)C(=O)N[C@@H](Cc2ccccc2)C(=O)N[C@@H](CCCNC(=N)N)C(=O)N[C@@H](Cc2ccc(O)cc2)C(=O)O)NC(=O)CNC(=O)[C@H](CC(C)C)NC(=O)CNC(=O)[C@H](CO)NC(=O)[C@H](CCC(N)=O)NC(=O)[C@H](C)NC(=O)CNC1=O` [atrial natriuretic peptide, reference compound], the “effect of the activator alone on LPS induction of the selected genes” value [1] was “little or no effect”.

`CCN(CC)/[N+]([O-])=N/[O-].[Na+]` [DEANO, reference compound] was tested, and the “effect of the activator alone on LPS induction of the selected genes” value [1] was “little or no effect”.

With `COc1ccc(C2CNC(=O)C2)cc1OC1CCCC1` (stereo not shown) [rolipram, reference compound] the “Chemokine (C-C) motif Ligand 2 expression (Q-PCR)” value [2] was “Down”, the “Interleukin 1 beta expression (Q-PCR)” value [2] was “UP-UP” and the “Interleukin 6 expression (Q-PCR)” value [2] was “UP-UP”. The “Oncostatin M expression (Q-PCR)” value [2] was “Down”, the “Tumor necrosis factor expression (Q-PCR)” value [2] was “Down” and the “Chemokine (C-C) motif Ligand 2 expression (Q-PCR)” value ([3]; BV2 + LPS, initial results) was “Down”. For the same compound, the “Interleukin 1 beta expression (Q-PCR)” value ([3]; BV2 + LPS, initial results) was “UP UP”, the “Tumor necrosis factor expression (Q-PCR)” value ([3]; BV2 + LPS, initial results) was “Down” and the “LPS-induced increase in expression of Ccl2” value [3, 7] was “reducing”. The “LPS-induced increase in expression of IL1β” value [3, 7] was “increasing”, the “LPS-induced increase in expression of TNFα” value [3, 7] was “reducing” and the “mRNA transcripts decreased in the presence of LPS + compound vs. LPS alone” value ([4]; BV2 cells, RNAseq) was 209 transcripts. The “transcripts elevated in the presence of LPS + compound vs. LPS alone” value ([4]; BV2 cells, RNAseq) was 156 transcripts, the “genes significantly affected by this compound but not the other (Compound 214 / Rolipram)” value ([4]; further RNASeq analysis) was 251 genes and the “genes significantly affected by this compound but not the other (Compound 214 / Rolipram)” value ([4]; still a further experiment) was 1463 genes.

In the case of `CN1C(=O)c2c(nn(Cc3ccc(-c4ccccn4)cc3)c2Nc2ccccc2)N2C1=N[C@@H]1CCC[C@@H]12` [IC200041], the “survival of retinal ganglion cells compared with the PBS control” value [5] was “highly effective”.

In the case of `CN1C(=O)c2c(nn(Cc3ccc(C(F)(F)F)cc3)c2Nc2ccccc2)N2C1=N[C@@H]1CCC[C@@H]12` [Example 20 of U.S. Pat. No. 8,273,750, (6aR,9aS)-3-(phenylamino)-5,6a,7,8,9,9a-hexahydro-5-methyl-2-(4-(trifluoromethyl)-benzyl)-cyclopent[4,5]imidazo[1,2-a]pyrazolo[4,3-e]pyrimidin-4(2H)-one], the “cGMP level, ANP in combination with the PDE1 inhibitor versus either alone” value ([6]; 100 nM ANP + 100 nM PDE1 inhibitor) was “greater”, the “decreasing cGMP signal caused by activation of PDE1 by ionomycin” value ([6]; PDE1 inhibitor + sub-optimal ANP, ionomycin 5 μM) was “synergistically prevented” and the “cGMP level, co-treatment with ANP and the PDE1 inhibitor versus ANP and SCH 51866” value ([6]; SCH 51866 used at 5 μM) was “much greater”. The “effect of ionomycin on cGMP when combined with ANP and the PDE1 inhibitor” value ([6]; ionomycin 5 μM) was “only a weak cGMP lowering effect”.
